Reference: US9694073B2, “Small molecule inhibitors of polynucleotide kinase/phosphatase, poly(ADP-ribose) polymerase and uses thereof” (THE GOVERNORS OF THE UNIVERSITY OF ALBERTA, priority 2009, dated 2017)

How the values were obtained:
aprataxin (APTX) = biological target: T1, aprataxin (APTX) (Homo sapiens, UniProt Q7Z2E3); test: 3'-DNA phosphatase activity of aprataxin; assay type: biochemical; conditions: 50 μM
T1 construct: made in house; host or cells: E. coli BL21-Gold (DE3), QIAgene expression construct (Qiagen)
T1 sequence (Q7Z2E3 whole entry): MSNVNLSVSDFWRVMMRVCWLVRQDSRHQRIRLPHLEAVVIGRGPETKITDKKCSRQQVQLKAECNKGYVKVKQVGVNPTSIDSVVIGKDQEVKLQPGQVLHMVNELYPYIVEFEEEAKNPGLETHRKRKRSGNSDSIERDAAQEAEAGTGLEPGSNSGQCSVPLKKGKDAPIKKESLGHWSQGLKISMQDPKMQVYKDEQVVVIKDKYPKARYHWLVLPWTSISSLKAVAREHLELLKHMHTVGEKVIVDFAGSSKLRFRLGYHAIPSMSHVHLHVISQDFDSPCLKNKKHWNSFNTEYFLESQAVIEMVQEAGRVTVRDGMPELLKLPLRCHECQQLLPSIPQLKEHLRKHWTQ
Experimental: Human recombinant aprataxin (APTX) protein with an N-terminal 6× His tag was expressed in BL21-Gold (DE3) E. coli competent cells (Stratagene, La Jolla, Calif.) using the QIAgene expression construct (Qiagen, Mississauga, ON). A single colony of kanamycin resistant E. coli was used to inoculate a 200-ml overnight culture (e.g., about 12 to about 16 hours in Luria-Bertani (LB) media containing 30 μg/ml kanamycin. Four 50-ml fractions of overnight culture were then subcultured into 4×1 L LB without kanamycin. Once the culture reached an optical density of ˜0.6 at 600 nm, protein expression was induced using 0.2 mM isopropyl-1-thio-β-galactopyranoside (Sigma, St Louis, Mo.) at 37° C. for 2 hours. Cells were harvested by centrifugation at 10,000 rpm for 10 minutes at 4° C. and resuspended in 40 ml buffer (50 mM NaH2PO4, 250 mM NaCl, 1 mM PMSF, at pH 7.9). The solution was then stirred on ice for 30 minutes in the presence of 30 mg lysozyme and 4 mg PMSF, 1 μg/ml each of pepstatin and leupeptin. […] His-APTX concentration was then determined using the Bio-Rad Protein assay (Bio-Rad, Mississauga, ON).
It was also tested whether A12B4C3 could inhibit aprataxin, which is another human DNA 3′-phosphatase. For this experiment, the oligonucleotide substrate was incubated with equal quantities of the two enzymes that were purified from bacteria on the same day. […]

[1] = Clonogenic survival assay, compound alone; assay type: cell-based; conditions: 1 μM, exposure up to 24 hours (data not shown)
Experimental: The effect of hPNKP inhibition by A12B4C3 on cellular survival following exposure to ionizing radiation was measured in A549, A549δPNKP and MDA-MB-231 and MDA-MB-231δPNKP cells by clonogenic assays. Cells were seeded on 60-mm tissue culture plates at various concentrations to give between about 100-1000 colonies per plate and returned to the incubator overnight to allow the cells to attach. For radiosensitization studies, the cells were incubated with or without 1 μM A12B4C3 for 2 hours before irradiation and then exposed to increasing doses of γ-radiation (^60Co Gammacell; Atomic Energy of Canada Limited, Ottawa). After irradiation, cells were incubated for a further 24 hours in the same media and then washed twice with phosphate-buffered saline (PBS) and incubated in fresh media without the inhibitor. Colonies were stained with crystal violet after 10 to 14 days and counted with an automated Colcount colony counter (Oxford Optronix, Oxford, UK).
A12B4C3 was first tested for inherent toxicity. Cytotoxicity was measured by cell proliferation assay after exposure of A549 human lung adenocarcinoma cells and MDA-MB-231 cells to different doses of the compound for 72 hours (FIG. 6A). A dose-dependent reduction in cell proliferation up to 50% at 100 μM A12B4C3 was observed. […] No effect on cell proliferation was detected after exposure to 1 μM A12B4C3.

CCCCCCCCCCC(O)C1C=CC2C(=O)N(c3ccccc3)C(=O)C2N1Nc1ccc([N+](=O)[O-])cc1 (centres unmarked) [Compound A12B4C3, 2-(1-hydroxyundecyl)-1-(4-nitrophenylamino)-6-phenyl-6,7a-dihydro-1H-pyrrolo[3,4-b]pyridine-5,7(2H,4aH)-dione]
inhibition of aprataxin phosphatase activity (aprataxin (APTX)): refractory | cytotoxicity by clonogenic survival assay [1]: lack of cytotoxicity
